# Like-named read-outs stand apart in the source and are kept apart here.
# Assays:
# [1] = system: Leptospira serogroup Icterohaemorrhagiae; assay: Antigenic mass of fermenter culture by antigen Elisa; assay type: cell-based, L. interrogans (sensu lato); conditions: for Ag U/10^9 cells/ml, at 3 days: BSA ingredient in EMJH medium, not supplemented
# Experimental: A working seed of a strain of L. interrogans was inoculated into EMJH medium and incubated at 29° C. for 3 to 5 days. If needed up to 5 consecutive pre-culture passages could be made, whereby the pre-cultures were visually inspected for sufficient proliferation (turbidity) as criterion for transfer to the next passage.
# (§1) All experiments were performed in 0.5, 2 or 20 L working volume, computer-controlled fermenters (Sartorius), which were filled with 0.5, 1 or 10 L sterile-filtered EMJH medium, respectively. The standard EMJH medium contained 1% w/v BSA and 0.125% w/v polysorbate 80. The pH of the medium was 7.4 ±0.1 at start. The fermenter was inoculated with 5% v/v serogroup lcterohaemorrhagiae pre-culture (passage 5), giving an inoculation density of 2-4×10^7 cells/ml at day 0.
# (§2) During all fermentation experiments the temperature was controlled at about 29° C. The medium was aerated with headspace airflow, and the dissolved oxygen (pO2) concentration was controlled by automatic variation of the agitation-rate, to maintain a set pO2 concentration. Temperature, pH and pO2 concentration were monitored online, but pH and foam formation were not controlled.
# In comparative experiments up to 4 fermenters were run in parallel, which started off simultaneously with the same medium and Leptospira inoculum. One fermenter then usually contained only standard EMJH medium and served as reference, while in the others different supplementations of polyunsaturated C18 fatty acid were made.
# (§3) Supplementation was done either with pure linoleic acid (Sigma Aldrich, >99% pure) as a 10% v/v stock in absolute ethanol (JT Baker). Alternatively, linoleic acid was supplemented by using a BSA that was created with a high level of linoleic acid (high LA BSA). This high LA BSA was used either to replace a standard BSA in EMJH medium, or was used in addition to BSA in the EMJH medium, in which case it was added as a 25% w/v stock solution in sterile water. The high LA BSA or the pure linoleic acid/ethanol supplements were fed to a fermenter over the course of 4 hours, at 0.1-0.2 ml/hour, until the fermenter culture had received a desired total amount of linoleic acid. Different total available levels of linoleic acid have been tested, of between about 5 and 425 μg/ml in the total volume. The fermenter cultures of Leptospira were supplemented at different cell-densities i.e. at early-, mid- or end phase culture.
# (§4) Daily 5 ml samples were taken aseptically, directly from the fermenter, for analyses of total cell count (by Petroff-Hausser counting chamber); antigenic mass (by antigen amount Elisa); inactivated cells; and for profiling of the fatty acid type and-relative amounts (by gas chromatography) in the culture medium.
# (§5) Samples were inactivated with 0.1 or 0.2% v/v BPL, at 29° C. for 16-24 hours. The inactivated Leptospira were tested in an antigen Elisa within 24 hours.
# (§6) For a reference see: R. A. Hartskeerl et al., (International course on laboratory methods for the diagnosis of Leptospirosis, 4th Edition, 1 Apr. 2004. Royal Tropical Institute, Amsterdam).
# (§7) The Elisa's were set up as capture assays, whereby the same moab was used for coating and for detection.
# A reference standard was prepared for each Leptospira strain that was tested by antigen Elisa. The standard is a batch of monovalent Leptospira antigen, from inactivated cells. This was prepared using common techniques, essentially by proliferating a specific strain of Leptospira in EMJH medium as described above, and was inactivated as described before.
# [2] = system: Leptospira serogroup Tarassovi; assay type: cell-based, L. interrogans (sensu lato)
# Experimental: as §1, §3, §4, §5, §6, §7
# (§8) A reference standard was prepared for each Leptospira strain that was tested by antigen Elisa. The standard is a batch of monovalent Leptospira antigen, from inactivated cells. This was prepared using common techniques, essentially by proliferating a specific strain of Leptospira in EMJH medium as described above, and was inactivated as described before. Next the standard was concentrated and/or diluted in phosphate buffered saline, to contain about 1×10^9 cells/ml. An arbitrary number of antigen units was affixed to the sample, for example: 1000 Units/ml. When the standard needed replenishing, a subsequent preparation of the same standard, was compared and titrated alongside the old standard several times, before replacing it.
# (§9) As before, the average antigenic mass score by Elisa was calculated per 1×10^9 cells (pre-inactivation). […] The average antigenic mass 1×10^9 cells of the reference culture was set at 0% increase.
# Both alpha-and gamma C18:3 were purchased as pure chemicals (>98%).
# [3] = system: Leptospira serogroup Icterohaemorrhagiae; assay: Biomass (total cell count) and toxicity in fermenter culture; assay type: cell-based, L. interrogans (sensu lato)
# Experimental: as §2
# [4] = system: Leptospira serogroup Canicola (strain WS 280503)
# Experimental: as §1, §4, §5, §6, §7, §8, §9
# (§10) Both alpha-and gamma C18:3 were purchased as pure chemicals (>98%). Shortly before use for supplementation, they were diluted in pure ethanol to 10% or 20% v/v, depending on the amount of C18:3 that was to be added to a culture. This dilution in ethanol was added to a Leptospira culture by addition in 5 doses, divided over a period of 4 hours.
# [5] = system: Leptospira serogroup Pomona
# Experimental: as §1, §4, §5, §6, §7, §8, §9, §10
# [6] = system: Leptospira serogroup Australis (serovar Bratislava); assay type: cell-based, L. interrogans (sensu lato)
# [7] = system: Leptospira serogroup Grippotyphosa; assay type: cell-based, L. interrogans (sensu lato)
# [8] = system: Leptospira serogroup Sejroe (serovar Hardjo); assay: Antigenic mass of fermenter culture by antigen Elisa; assay type: cell-based, L. interrogans (sensu lato); conditions: high LA BSA in EMJH
# Experimental: as §3, with “culture. Typical mid-phase cell density was at about 5×10^8 cells/ml, which was reached during day 2 of the main incubation. Upon supplementation with linoleic acid from the pure linoleic acid in ethanol stock, sometimes a small decrease in pH was noted, which was corrected by applying some NaOH.” for “culture.”
# In a next study it was confirmed that the increase in antigenic mass upon supplementation with linoleic acid (C18:2) is a general phenomenon in Leptospira. […]
# [9] = 100 μg/ml, alpha vs gamma side by side, FIGS. 19 and 20
# [10] = supplementation at 5×10^8 cells/ml, FIGS. 33-36
# [11] = supplementation at 8×10^8 cells/ml, FIGS. 33-36
# [12] = BSA used in EMJH medium, compared with standard BSA
compound,measurement,setting,value
"BSA, BovoStar ®: a standard all-purpose BSA from the same manufacturer (Bovogen)","Ag U/10^9 cells/ml, at 3 days",[1],533 Ag U/10^9 cells/ml
"CCCCCC=CCC=CCC=CCCCCC(=O)O [gamma C18:3, 6,9, 12-octadecatrienoic acid]",Relative increase in antigenic mass (%),[2]; 100 μg/ml gamma C18:3,51%
same,toxicity on the culture,"[3]; 400 μg/ml, FIGS. 17 and 18",showed toxicity
same,Relative increase in antigenic mass (%),[4]; 200 μg/ml,98%
same,Relative increase in antigenic mass (%),[4]; 300 μg/ml,83%
same,Relative increase in antigenic mass (%),[5]; 100 μg/ml gamma C18:3,73%
same,Relative increase in antigenic mass (%),[6]; 100 μg/ml gamma C18:3,15%
same,increase in relative antigenic mass,[1]; [9],170%
same,increase in antigenic mass,"[1]; 200 μg/ml, FIGS. 17 and 18",114%
same,increase in antigenic mass,"[1]; 300 μg/ml, FIGS. 17 and 18",153%
same,Relative increase in antigenic mass,"[1]; supplementation at 2×10^8 cells/ml, FIGS. 35-36",71%
same,Relative increase in antigenic mass,[1]; [10],81%
same,Relative increase in antigenic mass,[1]; [11],162%
same,Relative increase in antigenic mass (%),[7]; 100 μg/ml gamma C18:3,57%
"BSA, BovoLep ®: standard BSA enriched with a number of vegetable fatty acids, recommended for promoting growth of Leptospira (Bovogen, Australia)",effect on biomass,[3]; [12],did increase the biomass
same,"Ag U/10^9 cells/ml, at 3 days",[1],498 Ag U/10^9 cells/ml
same,effect on antigenic mass,[1]; [12],no significant effect
high LA BSA: a BSA that was created with a high level of linoleic acid,antigenic mass,"[1]; high LA BSA at 1% w/v in EMJH, 25 μg/ml linoleic acid available, average of days 3-5",1636 Ag U/1×10^9 cells
same,"Ag. mass, Ag U/10^9 cells/ml","[1]; supplem. high LA BSA giving 50 μg/ml C18:2, total 55 μg/ml, EMJH standard BSA, average of days 3-5",1612 Ag U/10^9 cells/ml
same,relative Ag. mass (%),"[1]; supplem. high LA BSA giving 50 μg/ml C18:2, total 55 μg/ml, non-supplemented = 100, average of days 3-5",221%
same,relative Ag. mass (%),"[8]; C18:2 total 25 μg/ml (reference = 100), 2 day average",100%
same,"Antigenic mass, Ag U/10^9 cells/ml","[8]; C18:2 total 25 μg/ml, 2 day average (days 5 and 6)",287 Ag U/10^9 cells/ml
same,relative Ag. mass (%),"[7]; high LA BSA in EMJH, C18:2 total 25 μg/ml (reference = 100), 2 day average",100%
same,"Antigenic mass, Ag U/10^9 cells/ml","[7]; high LA BSA in EMJH, C18:2 total 25 μg/ml, 2 day average (days 4 and 5)",5074 Ag U/10^9 cells/ml
"BSA, Millipore: standard commercial BSA (Millipore)","Ag U/10^9 cells/ml, at 3 days",[1],525 Ag U/10^9 cells/ml
"CCC=CCC=CCC=CCCCCCCCC(=O)O [alpha C18:3, 9, 12, 15-octadecatrienoic acid]",Relative increase in antigenic mass (%),[2]; 100 μg/ml alpha C18:3,59%
same,Relative increase in antigenic mass (%),[2]; 200 μg/ml alpha C18:3,141%
same,toxicity on the culture,"[3]; 300 or 400 μg/ml, FIGS. 15 and 16",toxic effects
same,Relative increase in antigenic mass (%),[4]; 200 μg/ml,107%
same,Relative increase in antigenic mass (%),[4]; 300 μg/ml,112%
same,Relative increase in antigenic mass (%),[4]; 400 μg/ml,118%
same,Relative increase in antigenic mass (%),[5]; 100 μg/ml alpha C18:3,0%
same,Relative increase in antigenic mass (%),[5]; 200 μg/ml alpha C18:3,0%
same,Relative increase in antigenic mass (%),[6]; 100 μg/ml alpha C18:3,40%
same,Relative increase in antigenic mass (%),[6]; 200 μg/ml alpha C18:3,62%
same,increase in relative antigenic mass,"[1]; 100 μg/ml single fatty acid, FIGS. 37 and 38",144%
same,increase in relative antigenic mass,[1]; [9],122%
same,increase in antigenic mass,"[1]; 100 μg/ml, FIGS. 15 and 16, vs unsupplemented reference",122%
same,increase in antigenic mass,"[1]; 200 μg/ml, FIGS. 15 and 16, vs unsupplemented reference",81%
same,Relative increase in antigenic mass,"[1]; supplementation at 1×10^8 cells/ml, FIGS. 33-34",163%
same,Relative increase in antigenic mass,[1]; [10],164%
same,Relative increase in antigenic mass,[1]; [11],140%
same,Relative increase in antigenic mass (%),[7]; 100 μg/ml alpha C18:3,60%
same,Relative increase in antigenic mass (%),[7]; 200 μg/ml alpha C18:3,63%

# From patent publication US10046038B2, “Leptospira with increased antigenic mass” (priority 2012, dated 2018)
